Assay [1] deals with IL-6. The experiment in a line: Gene expression profile using RTQ-PCR: IL-6. It is filed as cell-based, human. The following applies: 3 μM. As to the method: The effect of the compound of example 7 was measured in stimulated untreated cells from the monocytic cell line (THP-1), human monocytes and synovial cells from rheumatoid arthritis patient. The effect of the compound in the THP-1 cell line was measured in terms of gene expression and was expressed as fold changes as compared to the cell stimulated control with no drug treatment.
THP-1 cells, human monocytes and synovial cells were treated with compound of example 7 or vehicle (0.5% DMSO). Total RNA isolation using a commercial RNA extraction kit (Qiagen Corporation, Germany) The first-strand cDNA was synthesized from total RNA using first strand cDNA synthesis kit from Invitrogen Corporation (California, USA). This was followed by real time quantitative polymerase chain reaction (RTQ PCR) using gene specific primers and standard thermal program of initial denaturation at 95° C. for 5 min and cycles of 95° C. for 10 seconds, followed by 60° C. for 30 seconds (Realplex PCR machine from Eppendorf, Germany). Quantitative measurement of products made during PCR cycles was normalized against a housekeeping gene (Actin) and was used to measure the gene expression as fold changes as compared to respective control.

In assay [2] the test system is IL-6. The experiment in a line: hPBMC membrane-monocyte contact bioassay: IL-6. The class given is cell-based. To be noted: Homo sapiens, monocytes, 24 h, read-out: inhibition of activated hPBMC mediated IL-6 production. From the text: The assay was designed as in reference, Immunology Letters, 117, 114-118, (2008), the disclosure of which is incorporated by reference for the teaching of the assay. Activated T cell contact-mediated monocyte activation, leading to the production of proinflammatory cytokines (e.g., TNF-α, IL-6), contributes to the pathogenesis of chronic inflammatory diseases including rheumatoid arthritis.
6-well plates (Nunc, USA) were coated with Goat anti-Mouse IgG, Fc (Chemicon, USA) at a concentration of 16.5 μL/mL in coating buffer ([…] NaHCO3, 3.56 g Na2CO3, pH 9.5).
The plates were incubated overnight at 4° C. under sterile conditions. […]
Following incubation, hPBMCs in separate wells of the 6-well plate were harvested, pooled together, and centrifuged. […] The pellet of hPBMC membranes was resuspended in lysis buffer (Sigma, USA) and the protein concentration was determined by the method of Bradford (Sigma, USA).
100 μL monocytes per well at 5×10^5 cells/mL were added to the 96-well plate (Nunc, USA) and cultured for 48 h at 37° C. […] Supernatants were collected after 24 h and TNF-α and IL-6 production was measured using OptiEIA ELISA sets, (BD BioSciences, USA). […]

SMILES strings stand for the structures.

The values below come from patent US20120225889A1, “USE OF MACROCYCLIC LACTONE DERIVATIVES FOR THE TREATMENT OF INFLAMMATORY DISORDERS” (PIRAMAL LIFE SCIENCES LIMITED, priority 2010, published 2012).

As for `C/C=C/C(O)C(C)/C=C/C(=N\O)C(C)C(O)C(C)C1OC(=O)/C(OC)=C/C(C)=C/C(C)C(O)C(CC)C(O)C(C)C/C(C)=C/C=C/C1OC` (centres unmarked) [Compound of example 7, (3Z,5E,13E,15E)-18-((5Z,6E,10E)-3,9-Dihydroxy-5-(hydroxymino)-4,8-dimethyldodeca-6,10-dien-2-yl)-9-ethyl-8,10-dihydroxy-3,17-dimethoxy-5,7,11,13-tetramethyl oxacyclooctadeca-3,5,13,15-tetraen-2-one], the IL-6 gene expression in assay [1] (Human monocytes, 3 h, ± SE, N = 3) is −1.1 + 1.0 log fold change; in assay [1] (Synovial cells, 12 h, N = 1) it was −4.0 log fold change; in assay [1] (THP-1 cells, 12 h, ± SE, N = 3), −1.5 + 1.0 log fold change. Also, the inhibition at 0.3 µM in assay [2] (at 0.3 μM) was found to be 66%. Moreover, the inhibition at 0.5 µM in assay [2] (at 0.5 μM) was found to be 100%.

As a reminder, the inhibition is the relative decrease from the control value, in per cent.
